{"source": "patent US12690586B2", "about": "“Herbicidal malonamides” (BASF SE, priority 2020, dated 2026)", "assay_in_all_cases": "greenhouse post-emergence herbicidal test", "assay_type_in_all_cases": "in vivo", "settings_in_all_cases": "post-emergence method, application rate 0.125 kg/ha; scale 0 to 100", "key": {"Avena fatua (AVEFA)": {"tested_on": "Avena fatua (AVEFA)", "from_the_text": "(§1) The culture containers used were plastic flowerpots containing loamy sand with approximately 3.0% of humus as the substrate. The seeds of the test plants were sown separately for each species.\n(§2) For the pre-emergence treatment, the active ingredients, which had been suspended or emulsified in water, were applied directly after sowing by means of finely distributing nozzles. The containers were irrigated gently to promote germination and growth and subsequently covered with transparent plastic hoods until the test plants had rooted. This cover caused uniform germination of the test plants, unless this had been impaired by the active ingredients. For the post-emergence treatment, the test plants were first grown to a height of 3 to 15 cm, depending on the plant habit, and only then treated with the active ingredients which had been suspended or emulsified in water. For this purpose, the test plants were either sown directly and grown in the same containers, or they were first grown separately as seedlings and transplanted into the test containers a few days prior to treatment.\n(§3) Depending on the species, the test plants were kept at 10-25° C. or 20-35° C., respectively. The test period extended over 2 to 4 weeks. During this time, the test plants were tended, and their response to the individual treatments was evaluated.\n(§4) Evaluation was carried out using a scale from 0 to 100. 100 means no emergence of the test plants, or complete destruction of at least the aerial moieties, and 0 means no damage, or normal course of growth. A good herbicidal activity is given at values of 65 to 90 and a very good herbicidal activity is given at values of 90 to 100.\n(§5) The test plants used in the greenhouse experiments were of the following species: […]"}, "[1]": {"tested_on": "Abutilon theophrasti (ABUTH)", "from_the_text": "as §1, §2, §3, §4, §5"}, "[2]": {"tested_on": "Alopecurus myosuroides (ALOMY)", "from_the_text": "as §1, §2, §3, §4, §5"}}, "data": [{"smiles": "COC(=O)[C@@H]1C=C[C@H](NC(=O)C2(C(=O)Nc3cc(F)cc(F)c3)CC2)C1", "note": "[I.2, methyl (1S,4R)-4-{1-[(3,5-difluorophenyl)carbamoyl]cyclopropaneamido}cyclopent-2-ene-1-carboxylate]", "values": [{"measurement": "herbicidal activity against AVEFA", "setting": "Avena fatua (AVEFA)", "result": "very good (a very good herbicidal activity is given at values of 90 to 100)"}, {"measurement": "herbicidal activity against ABUTH", "setting": "[1]", "result": "good (A good herbicidal activity is given at values of 65 to 90)"}, {"measurement": "herbicidal activity against ALOMY", "setting": "[2]", "result": "very good (a very good herbicidal activity is given at values of 90 to 100)"}]}]}
